In ChEMBL document CHEMBL1201862, “PubChem BioAssay data set” (2004):
Several values for one entry are separate records, joined by “and”; a condition that tells them apart may be missing. Identical values can stand only once.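 How tested: cells in 96-well plates exposed to compound for 48 hours at five concentrations. GI50 is the concentration that inhibits growth by half.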 Activity calls are given as the source filed them. No stated cut-off is given here; in the data, active = GI50 up to about 1.1 µM and inactive = higher.

Columns and labels:
Test in all cases: inhibition of tumour cell growth, NCI panel, 48 h
TK-10 = system: TK-10
SK-MEL-5 = system: SK-MEL-5
U-251 = system: U-251
MOLT-4 = system: MOLT-4
ACHN = system: ACHN
OVCAR-8 = system: OVCAR-8
SK-MEL-28 = system: SK-MEL-28
A549 = system: A549
SN12C = system: SN12C
HOP-62 = system: HOP-62
OVCAR-4 = system: OVCAR-4
COLO 205 = system: COLO 205
CCRF-CEM = system: CCRF-CEM
CAKI-1 = system: CAKI-1
NCI-H226 = system: NCI-H226
RPMI-8226 = system: RPMI-8226
SF-539 = system: SF-539
M14 = system: M14
SNB-75 = system: SNB-75
HCT-15 = system: HCT-15

SMILES | GI50 (TK-10) | GI50 (SK-MEL-5) | GI50 (U-251) | GI50 (MOLT-4) | GI50 (ACHN) | GI50 (OVCAR-8) | GI50 (SK-MEL-28) | GI50 (A549) | GI50 (SN12C) | GI50 (HOP-62) | GI50 (OVCAR-4) | GI50 (COLO 205) | GI50 (CCRF-CEM) | GI50 (CAKI-1) | GI50 (NCI-H226) | GI50 (RPMI-8226) | GI50 (SF-539) | GI50 (M14) | GI50 (SNB-75) | GI50 (HCT-15) [µM]
O=c1[nH]nc(Cc2ccccc2)n1O | > 100 µM (inactive) | > 100 µM (inactive) | > 100 µM (inactive) | > 100 µM (inactive) | > 100 µM (inactive) | > 100 µM (inactive) | > 100 µM (inactive) | > 100 µM (inactive) | > 100 µM (inactive) | > 100 µM (inactive) | > 100 µM (inactive) | > 100 µM (inactive) | > 100 µM (inactive) | > 100 µM (inactive) | > 100 µM (inactive) | > 100 µM (inactive) | > 100 µM (inactive) | – | – | –
COC(=O)[C@@H]1CC(C(C[N+](=O)[O-])c2ccc(O[Si](C)(C)C(C)(C)C)cc2)C(=O)N1C(=O)OC(C)(C)C (stereo partly drawn) | > 100 µM (inactive) | – | > 100 µM (inactive) and 78 µM (inactive) | – | – | > 100 µM (inactive) | > 100 µM (inactive) | 67.6 µM (inactive) and 37.4 µM (inactive) | 43.6 µM (inactive) and 69.8 µM (inactive) | > 100 µM (inactive) | 53.6 µM (inactive) and 29.6 µM (inactive) | – | 27.7 µM (inactive) and 18.1 µM (inactive) | > 100 µM (inactive) and 90.4 µM (inactive) | – | – | > 100 µM (inactive) | 52.5 µM (inactive) | > 100 µM (inactive) | –
COc1ccc(C(=O)/C=C/c2ccc(OCCSCCCCCCCCCCSCCOc3ccc(/C=C/C(=O)c4ccc(OC)c(OC)c4)cc3)cc2)cc1OC | > 100 µM (inactive) | > 100 µM (inactive) | – | > 100 µM (inactive) | > 100 µM (inactive) | > 100 µM (inactive) | > 100 µM (inactive) | > 100 µM (inactive) | > 100 µM (inactive) | > 100 µM (inactive) | – | > 100 µM (inactive) | > 100 µM (inactive) | > 100 µM (inactive) | – | > 100 µM (inactive) | > 100 µM (inactive) | > 100 µM (inactive) | > 100 µM (inactive) | > 100
O=C1/C(=C/c2ccccc2)CN(C(=O)Oc2ccccc2)C/C1=C\c1ccccc1 | 17 µM (inactive) | > 100 µM (inactive) | 18.7 µM (inactive) | 9.29 µM (inactive) | 21.9 µM (inactive) | 28.2 µM (inactive) | > 100 µM (inactive) | > 100 µM (inactive) | 65.3 µM (inactive) | 11.2 µM (inactive) | 96.2 µM (inactive) | > 100 µM (inactive) | 6.44 µM (inactive) | – | – | 0.221 µM (active) | 5.36 µM (inactive) | 21.8 µM (inactive) | 4.91 µM (inactive) | 40.6
CC1CC/C(=C\c2ccc(F)cc2)C2=C1C(c1ccc(F)cc1)NC(=S)N2 (stereo not drawn) | 79.3 µM (inactive) | 31 µM (inactive) | 61.4 µM (inactive) | 49.2 µM (inactive) | 54.3 µM (inactive) | 86.7 µM (inactive) | 88.3 µM (inactive) | – | 97.7 µM (inactive) | – | – | 30.6 µM (inactive) | 68.5 µM (inactive) | 57.8 µM (inactive) | 46.1 µM (inactive) | 18.1 µM (inactive) | > 100 µM (inactive) | 50.9 µM (inactive) | – | 41
CN(C)CCNCCN | > 100 µM (inactive) | > 100 µM (inactive) | > 100 µM (inactive) | > 100 µM (inactive) | > 100 µM (inactive) | > 100 µM (inactive) | > 100 µM (inactive) | > 100 µM (inactive) | > 100 µM (inactive) | > 100 µM (inactive) | > 100 µM (inactive) | > 100 µM (inactive) | – | > 100 µM (inactive) | > 100 µM (inactive) | > 100 µM (inactive) | > 100 µM (inactive) | > 100 µM (inactive) | – | > 100
CC(C)c1ccc(Cc2ccc(C(C)C)c(NC(=O)C(=O)Cc3cnc4ccccc4n3)c2C(C)C)c(C(C)C)c1NC(=O)C(=O)Cc1cnc2ccccc2n1 | > 100 µM (inactive) | > 100 µM (inactive) | > 100 µM (inactive) | > 100 µM (inactive) | > 100 µM (inactive) | > 100 µM (inactive) | – | > 100 µM (inactive) | – | > 100 µM (inactive) | > 100 µM (inactive) | > 100 µM (inactive) | > 100 µM (inactive) | 98.9 µM (inactive) | – | > 100 µM (inactive) | > 100 µM (inactive) | > 100 µM (inactive) | – | > 100
O=C(O)c1ccc(Nc2nc3nn(Cc4ccccc4)cc3c(=O)s2)cc1 | > 100 µM (inactive) | > 100 µM (inactive) | > 100 µM (inactive) | > 100 µM (inactive) | > 100 µM (inactive) | > 100 µM (inactive) | > 100 µM (inactive) | > 100 µM (inactive) | > 100 µM (inactive) | > 100 µM (inactive) | – | > 100 µM (inactive) | > 100 µM (inactive) | – | – | > 100 µM (inactive) | > 100 µM (inactive) | > 100 µM (inactive) | – | > 100
COc1cccc2c1-c1c(OC)cccc1SS2 | 21.9 µM (inactive) | 13.6 µM (inactive) | 15.7 µM (inactive) | 13.4 µM (inactive) | 41.8 µM (inactive) | 25.9 µM (inactive) | 16.8 µM (inactive) | 14.4 µM (inactive) | 13.8 µM (inactive) | 47.2 µM (inactive) | 21.8 µM (inactive) | 20 µM (inactive) | – | 25.2 µM (inactive) | 16 µM (inactive) | 11.4 µM (inactive) | 17.7 µM (inactive) | 27 µM (inactive) | – | 13.4
Oc1nnc2c(-c3ccccc3)n[nH]c2n1 | > 100 µM (inactive) | – | > 100 µM (inactive) | > 100 µM (inactive) | > 100 µM (inactive) | > 100 µM (inactive) | > 100 µM (inactive) | 14.2 µM (inactive) | > 100 µM (inactive) | > 100 µM (inactive) | > 100 µM (inactive) | > 100 µM (inactive) | > 100 µM (inactive) | 45.5 µM (inactive) | > 100 µM (inactive) | > 100 µM (inactive) | 15 µM (inactive) | > 100 µM (inactive) | – | > 100
OCC(O)C(OC1OC(CO)C(O)C(O)C1O)c1nn(-c2ccc(Cl)cc2)c2nc3cc(Cl)ccc3nc12 (stereo not drawn) | > 100 µM (inactive) | – | > 100 µM (inactive) | > 100 µM (inactive) | > 100 µM (inactive) | > 100 µM (inactive) | > 100 µM (inactive) | – | > 100 µM (inactive) | > 100 µM (inactive) | > 100 µM (inactive) | – | > 100 µM (inactive) | – | – | > 100 µM (inactive) | > 100 µM (inactive) | > 100 µM (inactive) | > 100 µM (inactive) | > 100
O=C1C=C(c2ccccc2)NC1(c1ccccc1)c1cc(-c2ccccc2)[nH]c1-c1ccccc1 (stereo not drawn) | – | – | > 100 µM (inactive) | > 100 µM (inactive) | > 100 µM (inactive) | > 100 µM (inactive) | > 100 µM (inactive) | > 100 µM (inactive) | > 100 µM (inactive) | 2.21 µM (inactive) | > 100 µM (inactive) | > 100 µM (inactive) | > 100 µM (inactive) | > 100 µM (inactive) | – | – | > 100 µM (inactive) | > 100 µM (inactive) | > 100 µM (inactive) | > 100
O=CNCCCN1CCN(CCCNC=O)CC1 | > 100 µM (inactive) | > 100 µM (inactive) | > 100 µM (inactive) | > 100 µM (inactive) | > 100 µM (inactive) | > 100 µM (inactive) | > 100 µM (inactive) | > 100 µM (inactive) | > 100 µM (inactive) | > 100 µM (inactive) | > 100 µM (inactive) | > 100 µM (inactive) | > 100 µM (inactive) | > 100 µM (inactive) | > 100 µM (inactive) | > 100 µM (inactive) | > 100 µM (inactive) | > 100 µM (inactive) | – | > 100
COC(=O)NC12CC3CC(CC(F)(C3)C1)C2 | > 100 µM (inactive) | – | > 100 µM (inactive) | > 100 µM (inactive) | > 100 µM (inactive) | > 100 µM (inactive) | > 100 µM (inactive) | > 100 µM (inactive) | – | > 100 µM (inactive) | – | > 100 µM (inactive) | > 100 µM (inactive) | – | – | > 100 µM (inactive) | > 100 µM (inactive) | > 100 µM (inactive) | 19.7 µM (inactive) | –
COc1ccc(/C=N/N=C(\N)NO)c(OC)c1OC | 71.1 µM (inactive) | 24.6 µM (inactive) | 42.1 µM (inactive) | 42.3 µM (inactive) | 21.2 µM (inactive) | 15 µM (inactive) | > 100 µM (inactive) | 13.3 µM (inactive) | 34.4 µM (inactive) | 32.7 µM (inactive) | 53.7 µM (inactive) | 19.1 µM (inactive) | 20 µM (inactive) | 54.3 µM (inactive) | 23.4 µM (inactive) | 31.6 µM (inactive) | 25.2 µM (inactive) | 44.4 µM (inactive) | – | 35.2
N#CC(C(=O)CCC(=O)Nc1cccc(C(F)(F)F)c1)c1ccc(Cl)cc1 (stereo not drawn) | > 100 µM (inactive) | > 100 µM (inactive) | > 100 µM (inactive) | > 100 µM (inactive) | > 100 µM (inactive) | > 100 µM (inactive) | – | > 100 µM (inactive) | > 100 µM (inactive) | > 100 µM (inactive) | > 100 µM (inactive) | > 100 µM (inactive) | > 100 µM (inactive) | > 100 µM (inactive) | > 100 µM (inactive) | > 100 µM (inactive) | > 100 µM (inactive) | > 100 µM (inactive) | – | > 100
